Row | melting point [°C] | SMILES
1 | 160 to 162 | O=C(Nc1nc(-c2ccco2)c(C(=O)C2CCOCC2)s1)c1ccc(CN2CCCCC2)cc1 [Compound 385, N-[4-(2-Furyl)-5-(tetrahydropyran-4-ylcarbonyl)thiazol-2-yl]-4-(piperidinomethyl)benzamide]
2 | 194 to 195 | O=C(Nc1nc(-c2ccco2)c(C(=O)C2CCOCC2)s1)c1ccc(CN2CCC(O)CC2)cc1 [Compound 386, N-[4-(2-Furyl)-5-(tetrahydropyran-4-ylcarbonyl)thiazol-2-yl]-4-(4-hydroxypiperidinomethyl)benzamide]
3 | 92 to 96 | O=C(Nc1nc(-c2ccco2)c(C(=O)C2CCOCC2)s1)c1ccc(CN2CCOCC2)cc1 [Compound 387, N-[4-(2-Furyl)-5-(tetrahydropyran-4-ylcarbonyl)thiazol-2-yl]-4-(morpholinomethyl)benzamide]
4 | 198 to 200 | COc1cccc(C(=O)Nc2nc(-c3ccco3)c(C(=O)C3CCOCC3)s2)c1OC [Compound 388, N-[4-(2-Furyl)-5-(tetrahydropyran-4-ylcarbonyl)thiazol-2-yl]-2,3-dimethoxybenzamide]
5 | 219 to 222 | COc1ccc(C(=O)Nc2nc(-c3ccco3)c(C(=O)C3CCOCC3)s2)c(OC)c1 [Compound 389, N-[4-(2-Furyl)-5-(tetrahydropyran-4-ylcarbonyl)thiazol-2-yl]-2,4-dimethoxybenzamide]
6 | 107 to 110 | COc1ccc(OC)c(C(=O)Nc2nc(-c3ccco3)c(C(=O)C3CCOCC3)s2)c1 [Compound 390, N-[4-(2-Furyl)-5-(tetrahydropyran-4-ylcarbonyl)thiazol-2-yl]-2,5-dimethoxybenzamide]
7 | 152 to 156 | COc1cccc(OC)c1C(=O)Nc1nc(-c2ccco2)c(C(=O)C2CCOCC2)s1 [Compound 391, N-[4-(2-Furyl)-5-(tetrahydropyran-4-ylcarbonyl)thiazol-2-yl]-2,6-dimethoxybenzamide]
8 | 289 to 292 | COc1ccc(C(=O)Nc2nc(-c3ccco3)c(C(=O)C3CCOCC3)s2)cc1OC [Compound 392, N-[4-(2-Furyl)-5-(tetrahydropyran-4-ylcarbonyl)thiazol-2-yl]-3,4-dimethoxybenzamide]
9 | 278 to 280 | COc1cc(OC)cc(C(=O)Nc2nc(-c3ccco3)c(C(=O)C3CCOCC3)s2)c1 [Compound 393, N-[4-(2-Furyl)-5-(tetrahydropyran-4-ylcarbonyl)thiazol-2-yl]-3,5-dimethoxybenzamide]
10 | 154 to 160 | O=C(Nc1nc(-c2ccco2)c(C(=O)C2CCOCC2)s1)c1cccc(F)c1F [Compound 394, 2,3-Difluoro-N-[4-(2-furyl)-5-(tetrahydropyran-4-ylcarbonyl)thiazol-2-yl]benzamide]
11 | 213 to 215 | O=C(Nc1nc(-c2ccco2)c(C(=O)C2CCOCC2)s1)c1ccc(F)cc1F [Compound 395, 2,4-Difluoro-N-[4-(2-furyl)-5-(tetrahydropyran-4-ylcarbonyl)thiazol-2-yl]benzamide]
12 | 172 to 174 | O=C(Nc1nc(-c2ccco2)c(C(=O)C2CCOCC2)s1)c1cc(F)ccc1F [Compound 396, 2,5-Difluoro-N-[4-(2-furyl)-5-(tetrahydropyran-4-ylcarbonyl)thiazol-2-yl]benzamide]
13 | 168 to 170 | O=C(Nc1nc(-c2ccco2)c(C(=O)C2CCOCC2)s1)c1c(F)cccc1F [Compound 397, 2,6-Difluoro-N-[4-(2-furyl)-5-(tetrahydropyran-4-ylcarbonyl)thiazol-2-yl]benzamide]
14 | 208 to 210 | O=C(Nc1nc(-c2ccco2)c(C(=O)C2CCOCC2)s1)c1ccc(F)c(F)c1 [Compound 398, 3,4-Difluoro-N-[4-(2-furyl)-5-(tetrahydropyran-4-ylcarbonyl)thiazol-2-yl]benzamide]
15 | 259 to 265 | O=C(Nc1nc(-c2ccco2)c(C(=O)C2CCOCC2)s1)c1cc(F)cc(F)c1 [Compound 399, 3,5-Difluoro-N-[4-(2-furyl)-5-(tetrahydropyran-4-ylcarbonyl)thiazol-2-yl]benzamide]
16 | 188 to 190 | O=C(Nc1nc(-c2ccco2)c(C(=O)C2CCOCC2)s1)c1cccc2c1OCCO2 [Compound 400, N-[4-(2-Furyl)-5-(tetrahydropyran-4-ylcarbonyl)thiazol-2-yl]-1,4-benzodioxane-5-carboxamide]
17 | 194 to 196 | O=C(Nc1nc(-c2ccco2)c(C(=O)C2CCOCC2)s1)c1ccc2c(c1)OCO2 [Compound 401, N-[4-(2-Furyl)-5-(tetrahydropyran-4-ylcarbonyl)thiazol-2-yl]-1,3-benzodioxol-5-carboxamide]
18 | 206 to 207 | O=C(Nc1nc(-c2ccco2)c(C(=O)C2CCOCC2)s1)c1cccc2c1OC(F)(F)O2 [Compound 402, 2,2-Difluoro-N-[4-(2-furyl)-5-(tetrahydropyran-4-ylcarbonyl)thiazol-2-yl]-1,3-benzodioxol-4-carboxamide]
19 | 124 to 129 | O=C(Nc1nc(-c2ccco2)c(C(=O)C2CCOCC2)s1)c1ccc2c(c1)OC(F)(F)O2 [Compound 403, 2,2-Difluoro-N-[4-(2-furyl)-5-(tetrahydropyran-4-ylcarbonyl)thiazol-2-yl]-1,3-benzodioxol-5-carboxamide]

Row | melting point [°C] | SMILES
20 | 185 to 186 | O=C(Nc1nc(-c2ccco2)c(C(=O)C2CCOCC2)s1)c1ccnc(Cl)c1 [Compound 404, 2-Chloro-N-[4-(2-furyl)-5-(tetrahydropyran-4-ylcarbonyl)-thiazol-2-yl]pyridine-4-carboxamide]
21 | 169 to 173 | Cc1cc(C(=O)Nc2nc(-c3ccco3)c(C(=O)C3CCOCC3)s2)ccn1 [Compound 405, N-[4-(2-Furyl)-5-(tetrahydropyran-4-ylcarbonyl)thiazol-2-yl]-2-methylpyridine-4-carboxamide]
22 | 209 to 212 | O=C(Nc1nc(-c2ccco2)c(C(=O)C2CCOCC2)s1)c1cccnc1 [Compound 406, N-[4-(2-Furyl)-5-(tetrahydropyran-4-ylcarbonyl)thiazol-2-yl]pyridine-3-carboxamide]
23 | 166 to 170 | O=C(Nc1nc(-c2ccco2)c(C(=O)C2CCOCC2)s1)c1ccc(N2CCOCC2)nc1 [Compound 408, N-[4-(2-Furyl)-5-(tetrahydropyran-4-ylcarbonyl)thiazol-2-yl]-2-morpholinopyridine-5-carboxamide]
24 | 217 to 222 | O=C(Nc1nc(-c2ccco2)c(C(=O)C2CCOCC2)s1)c1ccc(C(F)(F)F)nc1 [Compound 410, N-[4-(2-Furyl)-5-(tetrahydropyran-4-ylcarbonyl)thiazol-2-yl]-2-(trifluoromethyl)pyridine-5-carboxamide]
25 | 239 to 243 | Cc1cncc(C(=O)Nc2nc(-c3ccco3)c(C(=O)C3CCOCC3)s2)c1 [Compound 411, N-[4-(2-Furyl)-5-(tetrahydropyran-4-ylcarbonyl)thiazol-2-yl]-5-methylpyridine-3-carboxamide]
26 | 185 to 186 | O=C(Nc1nc(-c2ccco2)c(C(=O)C2CCOCC2)s1)c1ccccn1 [Compound 412, N-[4-(2-Furyl)-5-(tetrahydropyran-4-ylcarbonyl)thiazol-2-yl]pyridine-2-carboxamide]
27 | 200 to 205 | O=C(Nc1nc(-c2ccco2)c(C(=O)C2CCOCC2)s1)c1cnccn1 [Compound 414, N-[4-(2-Furyl)-5-(tetrahydropyran-4-ylcarbonyl)thiazol-2-yl]pyrazine-2-carboxamide]
28 | 130 to 131 | Cc1cnc(C(=O)Nc2nc(-c3ccco3)c(C(=O)C3CCOCC3)s2)cn1 [Compound 415, N-[4-(2-Furyl)-5-(tetrahydropyran-4-ylcarbonyl)thiazol-2-yl]-5-methylpyrazine-2-carboxamide]
29 | 209 to 212 | Cc1ccc(C(=O)Nc2nc(-c3ccco3)c(C(=O)C3CCOCC3)s2)o1 [Compound 417, N-[4-(2-Furyl)-5-(tetrahydropyran-4-ylcarbonyl)thiazol-2-yl]-5-methylfuran-2-carboxamide]
30 | 236 to 238 | O=C(Nc1nc(-c2ccco2)c(C(=O)C2CCOCC2)s1)c1ccoc1 [Compound 421, N-[4-(2-Furyl)-5-(tetrahydropyran-4-ylcarbonyl)thiazol-2-yl]furan-3-carboxamide]
31 | 231 to 232 | O=C(Nc1nc(-c2ccco2)c(C(=O)C2CCOCC2)s1)c1cccs1 [Compound 422, N-[4-(2-Furyl)-5-(tetrahydropyran-4-ylcarbonyl)thiazol-2-yl]thiophene-2-carboxamide]
32 | 227 to 229 | O=C(Nc1nc(-c2ccco2)c(C(=O)C2CCOCC2)s1)c1ccsc1 [Compound 423, N-[4-(2-Furyl)-5-(tetrahydropyran-4-ylcarbonyl)thiazol-2-yl]thiophene-3-carboxamide]
33 | 243 to 247 | Cn1cc(C(=O)Nc2nc(-c3ccco3)c(C(=O)C3CCOCC3)s2)cn1 [Compound 424, N-[4-(2-Furyl)-5-(tetrahydropyran-4-ylcarbonyl)thiazol-2-yl]-1-methylpyrazole-4-carboxamide]
34 | 170 to 174 | CCn1cc(C(=O)Nc2nc(-c3ccco3)c(C(=O)C3CCOCC3)s2)cn1 [Compound 425, 1-Ethyl-N-[4-(2-furyl)-5-(tetrahydropyran-4-ylcarbonyl)-thiazol-2-yl]pyrazole-4-carboxamide]
35 | 217 to 220 | O=C(Nc1nc(-c2ccco2)c(C(=O)C2CCOCC2)s1)c1cnn(-c2ccccc2)c1 [Compound 426, N-[4-(2-Furyl)-5-(tetrahydropyran-4-ylcarbonyl)thiazol-2-yl]-1-phenylpyrazole-4-carboxamide]
36 | 115 to 117 | O=C(c1sc(NC(=O)C2CCCO2)nc1-c1ccco1)C1CCOCC1 (stereo not shown) [Compound 428, N-[4-(2-Furyl)-5-(tetrahydropyran-4-ylcarbonyl)thiazol-2-yl]tetrahydrofuran-2-carboxamide]
37 | 164 to 166 | O=C(Nc1nc(-c2ccco2)c(C(=O)C2CCOCC2)s1)C1CCOC1 (stereo not shown) [Compound 429, N-[4-(2-Furyl)-5-(tetrahydropyran-4-ylcarbonyl)thiazol-2-yl]tetrahydrofuran-3-carboxamide]
